The results in this text go back to patent US10947199B2, “Spiro and cyclic bis-benzylidene proteasome inhibitor for the treatment of cancer, diabetes and neurological disorders” (UP THERAPEUTICS, INC., priority 2017, dated 2021).

pIC50: −log10 of the molar value.

In one assay the test system is SKOV3-TR. In words: MTT cell viability assay, SKOV3-TR. It counts as cell-based. The conditions noted are these: for difference in activity between SKOV3 and its taxol resistant line (SKOV3-TR): SKOV3 vs SKOV3-TR. How it is done:
(§1) Briefly cancer cells incubated with Up compounds for the period of 24 or 48 or 72 hours and the cell viability was measured using MTT assay. IC50 of compounds listed in Table1.
Background: Formazan colour is commonly taken as a measure of viable cells.

Assay [1] concerns proteasome function (4Ub-FL reporter) in 293TT cells. In words: 4Ub-FL reporter assay of proteasome function in live cells. It counts as cell-based. The conditions noted are these: 293TT cells expressing 4Ub-FL. The source says:
To measure proteasome function in live cells, we utilized an engineered ubiquitin-firefly (4Ub-FL) reporter in which four copies of mutant ubiquitin (ubiquitin G76V) gene are fused to the N-terminus of the firefly luciferase (FL) gene. The results of this experiment, shown in FIG. 1, reveal that the 4Ub-FL reporter protein is rapidly degraded by the proteasome.
To measure proteasome function in live cells, we utilized an engineered ubiquitin-firefly (4Ub-FL) reporter in which four copies of mutant ubiquitin (ubiquitin G76V) gene are fused to the N-terminus of the firefly luciferase (FL) gene. The 4Ub-FL reporter protein is rapidly degraded by the proteasome (FIG. 6). […] Treatment of Up109 produced a greater increase in the 4Ub-FL bioluminescence in a dose dependent manner.
In general terms: A reporter such as luciferase makes a cellular process visible.

Assay [2] deals with NFκB reporter in 293 cells. In words: NFκB reporter assay in 293 cells stimulated with TNF-a. It counts as cell-based. Conditions: 293 cells carrying NFκB reporter construct. From the text: (§2) NFκB is constitutively activated in many cancers including high grade cervical intraepithelial neoplasia (CIN) and cervical cancer.
The test system of another assay is HeLa. Put plainly: MTT cell viability assay, HeLa. The conditions noted are these: Cervical Cancer, 24 or 48 or 72 hours. Format: cell-based. How it is done: as §1
For another assay, the system named is PC-3. Put plainly: MTT cell viability assay, PC-3. Format: cell-based. Conditions: PC-3, Prostate Cancer, 24 or 48 or 72 hours. As to the method: as §1
In the next assay the test system is MM.1S. Put plainly: MTT cell viability assay, MM.1S. Format: cell-based. Conditions: Multiple Myeloma, 24 or 48 or 72 hours. As to the method:
as §1

A further assay concerns HS578T. Put plainly: MTT cell viability assay, HS578T. Format: cell-based. Conditions: Triple Negative Breast Cancer, 24 or 48 or 72 hours. As to the method:
as §1

The test system of another assay is MDA-MB-231. In words: MTT cell viability assay, MDA-MB-231. It counts as cell-based. The conditions noted are these: MDA-MB-231, Triple Negative Breast Cancer, 24 or 48 or 72 hours. How it is done:
as §1

A further assay has as its system HCC1806. In words: MTT cell viability assay, HCC1806. The conditions noted are these: HCC1806, Triple Negative Breast Cancer, 24 or 48 or 72 hours. It counts as cell-based. How it is done: as §1
The next assay relates to OVCAR5. In words: MTT cell viability assay, OVCAR5. Format: cell-based. Conditions: OVCAR5, Ovarian Cancer, 24 or 48 or 72 hours. As to the method:
as §1

For the next assay, the system named is OV2008 cancer cells. Put plainly: Colony formation, OV2008. Format: cell-based. Conditions: corresponding to IC50 values.
In a further assay the test system is A2780 cancer cells. In words: Colony formation, A2780. It counts as cell-based. Conditions: corresponding to IC50 values.
For a further assay, the system named is OV2008. Put plainly: MTT cell viability assay, OV2008. Format: cell-based. Conditions: OV2008, Ovarian Cancer, 24 or 48 or 72 hours. How it is done:
as §1

In the next assay the test system is RPMI8226-R. In words: MTT cell viability assay, RPMI8226-R. It counts as cell-based. Conditions: Multiple Myeloma, 24 or 48 or 72 hours. As to the method:
as §1

The target in assay [3] is T1, RPN13 (Homo sapiens, UniProt Q16186).
T1 construct: HeLa cell lysate was pretreated with Up109 or Up117; endogenous in cells; host or cells: HeLa cell lysate
T1 sequence (Q16186 whole entry): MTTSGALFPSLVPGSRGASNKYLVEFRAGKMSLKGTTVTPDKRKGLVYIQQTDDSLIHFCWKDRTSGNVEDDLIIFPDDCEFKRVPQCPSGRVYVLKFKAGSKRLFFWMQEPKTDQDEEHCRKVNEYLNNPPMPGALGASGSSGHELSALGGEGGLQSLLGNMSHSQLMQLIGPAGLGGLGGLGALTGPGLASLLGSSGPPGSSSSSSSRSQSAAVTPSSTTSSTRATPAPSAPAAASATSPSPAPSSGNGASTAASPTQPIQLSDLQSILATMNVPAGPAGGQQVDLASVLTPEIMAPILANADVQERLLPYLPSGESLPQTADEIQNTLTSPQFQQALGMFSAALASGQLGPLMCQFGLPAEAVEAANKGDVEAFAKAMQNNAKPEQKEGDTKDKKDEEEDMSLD
Put plainly: RA190B probe competition assay, OV2008 cell lysate. It counts as binding. Conditions: compound 25 μM, RA190B 5 μM. As to the method: To identify the cellular target, a competition assay was performed using RA190B probe. […] We used RA190B as a probe to determine the Up compounds binding to RPN13. OV2008 cell lysate was pretreated with Up compounds (25 μM) and then subsequently treated with RA190B (5 μM). Lysate was denatured under reduced conditions and proteins were separated on a gel and probed with HRP Streptavidin.

The subject of a further assay is HepG2. Put plainly: MTT cell viability assay, HepG2. Format: cell-based. The conditions noted are these: HepG2, Liver Cancer, 24 or 48 or 72 hours. How it is done: as §1
The test system of a further assay is LNCaP. Put plainly: MTT cell viability assay, LNCaP. It counts as cell-based. The conditions noted are these: Prostate Cancer, 24 or 48 or 72 hours. As to the method: as §1
Another assay deals with SKOV3. Put plainly: MTT cell viability assay, SKOV3. It counts as cell-based. Conditions: SKOV3, Ovarian Cancer, 24 or 48 or 72 hours. How it is done: as §1
The subject of assay [4] is K48-linked polyubiquitinated proteins in HeLa cells. Put plainly: anti-K48-linked ubiquitin immunoblot in HeLa cells. Format: cell-based. Conditions: 4 hr treatment. From the text: Accumulation of poly ubiquitinated proteins is a general phenomenon of proteasome inhibition. We examined the impact of these compounds on the levels of polyubiquitinated proteins in HeLa cells by anti-K48-linked ubiquitin immunoblot analysis.
A general note: A western blot detects proteins with antibodies after separation by electrophoresis.

The test system of the next assay is RPMI8226. In words: MTT cell viability assay, RPMI8226. Format: cell-based. Conditions: RPMI8226, Multiple Myeloma, 24 or 48 or 72 hours. How it is done: as §1
Another assay relates to IkB-a in HeLa cells. Put plainly: IkB-a stabilization in HeLa cells with TNF-a. Conditions: in the presence of TNF-a. It counts as cell-based.
Source text: as §2

Another assay relates to ES2. Put plainly: MTT cell viability assay, ES2. Format: cell-based, human. Conditions: ES2, Ovarian Cancer, 24 or 48 or 72 hours. As to the method: as §1
In a further assay the test system is DU145. In words: MTT cell viability assay, DU145. It counts as cell-based. Conditions: DU145, Prostate Cancer, 24 or 48 or 72 hours. As to the method: as §1
The subject of assay [5] is HFF(primary human foreskin fibroblast). In words: MTT cell viability assay, HFF. It counts as cell-based. The conditions noted are these: Normal Cell line, 24 or 48 or 72 hours. How it is done: as §1
The test system of another assay is A2780. In words: MTT cell viability assay, A2780. Format: cell-based. The conditions noted are these: A2780, Ovarian Cancer, 24 or 48 or 72 hours. As to the method: as §1
The target in assay [6] is T1, RPN13. In words: RA190B probe competition assay, HeLa cell lysate. It counts as binding. The conditions noted are these: HeLa cell lysate pretreated with compound. As to the method:
To identify the cellular target, a competition assay was performed using RA190B probe. […] We used RA190B as a probe to determine the Up compound binding to RPN13. HeLa cell lysate was pretreated with Up109 or Up117 and then subsequently treated with RA190B. Lysate was denatured under reduced conditions and proteins were separated on a gel and probed with HRPStreptavidin.

As for `CC(=O)O[C@H]1C(=O)[C@@]2(C)[C@H]([C@H](OC(=O)c3ccccc3)[C@]3(O)C[C@H](OC(=O)[C@H](O)[C@@H](NC(=O)c4ccccc4)c4ccccc4)C(C)=C1C3(C)C)[C@]1(OC(C)=O)CO[C@@H]1C[C@@H]2O` [Taxol, reference compound], the “difference in activity between SKOV3 and its taxol resistant line (SKOV3-TR)” value in the assay on SKOV3-TR worked out at 7 fold.

Take `Cl.N[C@@H](Cc1ccccc1)C(=O)N1C/C(=C/c2ccc(Cl)c(Cl)c2)C(=O)/C(=C\c2ccc(Cl)c(Cl)c2)C1` [RA190, reference compound]: the “increase in 4Ub-FL bioluminescence compared to before treatment” value in [1] is on record as “fivefold increase”. The “NFκB reporter activity after stimulation with TNF-a” value in assay [2] was “significant dose-dependent decrease”.

`O=C(CCl)NC(Cc1ccccc1)C(=O)N1CCC2(CC1)C(=Cc1ccc([N+](=O)[O-])cc1)C(=O)C2=Cc1ccc([N+](=O)[O-])cc1` (stereo not drawn) [Up117]: in [1] (dose dependent), the “4Ub-FL reporter stabilization / bioluminescence increase (qualitative)” value is given as “greater increase in the 4Ub-FL bioluminescence than RA190”. The pIC50 with HeLa is 7.05; in the assay on SKOV3-TR (SKOV3-TR, Ovarian Cancer (taxol resistant), MTT, 24 or 48 or 72 hours) it was 6.69; in the assay with PC-3 it was 7.13; in the assay on MM.1S, 7.38; with HS578T, 7.49; with MDA-MB-231, 7.25. Moreover, the negative-log IC50 (pIC50) in the assay with HCC1806 was 7.15; with OVCAR5, 7.43; in the assay on OV2008, 7.33; in the assay on RPMI8226-R, 7.11; with HepG2, 6.35; in the assay with LNCaP, 7.06. The pIC50 in the assay on SKOV3 is 6.80; in the assay on RPMI8226, 6.85; in the assay with ES2, 7.39; with DU145 it was 6.89; in [5], under 5.90; in the assay on A2780, 7.66. Also, the “difference in activity between SKOV3 and its taxol resistant line (SKOV3-TR)” value in the assay with SKOV3-TR is reported as “similarly active”. In addition, the “NFκB reporter activity after stimulation with TNF-a” value in assay [2] was “significant dose-dependent decrease”. Also, the colony formation result in the assay with OV2008 cancer cells and with A2780 cancer cells was “significantly blocked colony formation” in each case. Further, the entries for the “competition with RA190B for binding to RPN13” value on RPN13 [3] and at RPN13 [6] were “Disappearance of RA190B labeling” and “disappearance of RA190B labeling”, respectively. In addition, the “levels of K48-linked polyubiquitinated proteins” value in [4] was “dramatically increased”. Moreover, the “stabilization of IkB-a” value in the assay with IkB-a in HeLa cells is “Stabilization of IkB-a was observed”.

As usually defined, the pIC50 is the IC50 on a negative log10 scale, so that one unit is a factor of ten. A high value points to a small IC50.
